Results as given in the CheMixHub viscosity set.
± gives the uncertainty stated by the source.

Assay: xn = mol fraction of the nth substance listed

CCCCCCCO + CCCO
viscosity [mPa·s], 101 kPa
Settings	298.15 K	308.15 K	318.15 K
x2 = 0.05	5.555 ± 0.054	4.09 ± 0.038	3.044 ± 0.028
x2 = 0.1	5.333 ± 0.051	3.923 ± 0.037	2.935 ± 0.027
x2 = 0.15	5.11 ± 0.049	3.762 ± 0.035	2.83 ± 0.026
x2 = 0.2	4.888 ± 0.047	3.607 ± 0.034	2.728 ± 0.025
x2 = 0.25	4.667 ± 0.044	3.456 ± 0.032	2.627 ± 0.024
x2 = 0.3	4.449 ± 0.042	3.309 ± 0.031	2.528 ± 0.023
x2 = 0.35	4.235 ± 0.04	3.166 ± 0.029	2.429 ± 0.022
x2 = 0.4	4.026 ± 0.037	3.027 ± 0.028	2.331 ± 0.021
x2 = 0.45	3.822 ± 0.035	2.89 ± 0.026	2.234 ± 0.02
x2 = 0.5	3.623 ± 0.033	2.756 ± 0.025	2.136 ± 0.019
x2 = 0.55	3.431 ± 0.032	2.624 ± 0.024	2.039 ± 0.018
x2 = 0.6	3.243 ± 0.03	2.494 ± 0.022	1.942 ± 0.017
x2 = 0.65	3.061 ± 0.028	2.364 ± 0.021	1.845 ± 0.017
x2 = 0.7	2.882 ± 0.026	2.236 ± 0.02	1.748 ± 0.016
x2 = 0.75	2.707 ± 0.025	2.107 ± 0.019	1.654 ± 0.015
x2 = 0.8	2.534 ± 0.023	1.979 ± 0.018	1.56 ± 0.014
x2 = 0.85	2.362 ± 0.021	1.849 ± 0.017	1.47 ± 0.013
x2 = 0.9	2.189 ± 0.02	1.719 ± 0.015	1.382 ± 0.012
x2 = 0.95	2.013 ± 0.018	1.587 ± 0.014	1.299 ± 0.011

CCN(CC)S(C)(=O)=O + CC(C)(C)O
303.15 K, 101.33 kPa
Settings	viscosity [mPa·s]
x1 = 0.0764	28570 ± 3400
x1 = 0.1463	26300 ± 3100
x1 = 0.2364	24820 ± 2900
x1 = 0.3171	24370 ± 2800
x1 = 0.3944	24530 ± 2800
x1 = 0.4712	25010 ± 2900
x1 = 0.5369	25790 ± 3000
x1 = 0.6062	26640 ± 3100
x1 = 0.6888	27960 ± 3300
x1 = 0.7621	30100 ± 3600
x1 = 0.8534	33040 ± 4000
x1 = 0.9381	36570 ± 4500

CS(C)=O + C1CCOC1
298.15 K, 101 kPa
Settings	viscosity [mPa·s]
x2 = 0.27	1.523 ± 0.013
x2 = 0.52	1.112 ± 0.01
x2 = 0.76	0.7376 ± 0.0083

CCCCC + C1CCCCC1
101 kPa
Settings	viscosity [mPa·s]
293.15 K, x2 = 0.2248	0.287 ± 0.008
293.15 K, x2 = 0.3367	0.327 ± 0.009
293.15 K, x2 = 0.4743	0.39 ± 0.01
293.15 K, x2 = 0.601	0.466 ± 0.012
293.15 K, x2 = 0.7202	0.561 ± 0.015
293.15 K, x2 = 0.8333	0.685 ± 0.018
298.15 K, x2 = 0.176	0.264 ± 0.007
298.15 K, x2 = 0.3541	0.321 ± 0.009
298.15 K, x2 = 0.4788	0.372 ± 0.01
298.15 K, x2 = 0.6163	0.447 ± 0.013
298.15 K, x2 = 0.7478	0.544 ± 0.02
298.15 K, x2 = 0.8754	0.68 ± 0.026

CCCCCCCO + CO
viscosity [mPa·s], 101 kPa
Settings	298.15 K	308.15 K	318.15 K
x2 = 0.05	5.378 ± 0.052	3.995 ± 0.037	2.975 ± 0.028
x2 = 0.1	4.999 ± 0.048	3.737 ± 0.034	2.809 ± 0.026
x2 = 0.15	4.634 ± 0.044	3.487 ± 0.032	2.647 ± 0.024
x2 = 0.2	4.284 ± 0.04	3.246 ± 0.029	2.488 ± 0.022
x2 = 0.25	3.949 ± 0.036	3.013 ± 0.027	2.332 ± 0.021
x2 = 0.3	3.627 ± 0.033	2.788 ± 0.025	2.179 ± 0.019
x2 = 0.35	3.319 ± 0.03	2.571 ± 0.023	2.028 ± 0.018
x2 = 0.4	3.025 ± 0.027	2.362 ± 0.021	1.88 ± 0.016
x2 = 0.45	2.744 ± 0.024	2.161 ± 0.019	1.735 ± 0.015
x2 = 0.5	2.475 ± 0.022	1.967 ± 0.017	1.592 ± 0.014
x2 = 0.55	2.22 ± 0.019	1.78 ± 0.015	1.453 ± 0.013
x2 = 0.6	1.978 ± 0.017	1.602 ± 0.014	1.317 ± 0.011
x2 = 0.65	1.75 ± 0.015	1.431 ± 0.012	1.184 ± 0.01
x2 = 0.7	1.534 ± 0.013	1.267 ± 0.011	1.056 ± 0.0092
x2 = 0.75	1.333 ± 0.012	1.113 ± 0.0097	0.9327 ± 0.0082
x2 = 0.8	1.145 ± 0.0099	0.9661 ± 0.0084	0.815 ± 0.0072
x2 = 0.85	0.9716 ± 0.0085	0.8284 ± 0.0073	0.7037 ± 0.0063
x2 = 0.9	0.8131 ± 0.0072	0.6998 ± 0.0063	0.5997 ± 0.0055
x2 = 0.95	0.6699 ± 0.006	0.5807 ± 0.0053	0.504 ± 0.0047

CS(C)=O + CCCCCCO
101 kPa
Settings	viscosity [mPa·s]
303.15 K, x1 = 0.1678	2.991 ± 0.035
303.15 K, x1 = 0.1907	2.831 ± 0.035
303.15 K, x1 = 0.3273	2.582 ± 0.029
303.15 K, x1 = 0.3639	2.288 ± 0.028
303.15 K, x1 = 0.4458	2.342 ± 0.026
303.15 K, x1 = 0.522	2.088 ± 0.026
303.15 K, x1 = 0.5483	2.171 ± 0.023
303.15 K, x1 = 0.64	2.061 ± 0.021
303.15 K, x1 = 0.6669	1.898 ± 0.024
303.15 K, x1 = 0.7228	1.983 ± 0.02
303.15 K, x1 = 0.8002	1.739 ± 0.022
303.15 K, x1 = 0.8098	1.901 ± 0.018
303.15 K, x1 = 0.8795	1.827 ± 0.017
303.15 K, x1 = 0.9231	1.722 ± 0.022
303.15 K, x1 = 0.9413	1.754 ± 0.016
313 K, x1 = 0.1163	2.459 ± 0.064
313 K, x1 = 0.203	2.239 ± 0.058
313 K, x1 = 0.4013	1.891 ± 0.049
313 K, x1 = 0.4964	1.793 ± 0.046
313 K, x1 = 0.5978	1.719 ± 0.045
313 K, x1 = 0.6873	1.666 ± 0.043
313 K, x1 = 0.7968	1.593 ± 0.041
313 K, x1 = 0.9124	1.574 ± 0.041

C1CCCCCCC1 + CCCCCCCCCC
viscosity [mPa·s], 101 kPa
Settings	x1 = 0.0657	x1 = 0.1971	x1 = 0.282	x1 = 0.386	x1 = 0.508	x1 = 0.5849	x1 = 0.7031	x1 = 0.7984	x1 = 0.9053
308.15 K	0.7647 ± 0.013	0.829 ± 0.014	0.881 ± 0.015	0.9331 ± 0.015	1.026 ± 0.017	1.093 ± 0.018	1.213 ± 0.019	1.345 ± 0.021	1.55 ± 0.025
313.15 K	0.7178 ± 0.012	0.7776 ± 0.013	0.819 ± 0.014	0.8631 ± 0.014	0.9523 ± 0.016	1.006 ± 0.016	1.12 ± 0.018	1.24 ± 0.02	1.406 ± 0.022

C1CCCCCCC1 + C1CCCC1
101 kPa
Settings	viscosity [mPa·s]
298.15 K, x1 = 0.0472	0.4501 ± 0.0048
298.15 K, x1 = 0.06	0.4609 ± 0.0049
298.15 K, x1 = 0.1203	0.5119 ± 0.0053
298.15 K, x1 = 0.1974	0.5838 ± 0.006
298.15 K, x1 = 0.1982	0.5837 ± 0.006
298.15 K, x1 = 0.2776	0.6681 ± 0.0068
298.15 K, x1 = 0.4053	0.824 ± 0.008
298.15 K, x1 = 0.4083	0.827 ± 0.008
298.15 K, x1 = 0.5052	0.968 ± 0.01
298.15 K, x1 = 0.5909	1.116 ± 0.011
298.15 K, x1 = 0.6747	1.276 ± 0.013
298.15 K, x1 = 0.7902	1.55 ± 0.015
298.15 K, x1 = 0.9049	1.895 ± 0.019
303.15 K, x2 = 0.1036	1.684 ± 0.01
303.15 K, x2 = 0.2009	1.421 ± 0.0085
303.15 K, x2 = 0.3014	1.205 ± 0.0073
303.15 K, x2 = 0.3972	1.031 ± 0.0064
303.15 K, x2 = 0.5003	0.8744 ± 0.0055
303.15 K, x2 = 0.5992	0.7468 ± 0.0049
303.15 K, x2 = 0.7036	0.6288 ± 0.0043
303.15 K, x2 = 0.8996	0.4555 ± 0.0036

CCCCCCCCCCCCCC[P+](CCCCCC)(CCCCCC)CCCCCC.c1ccc2[n-]nnc2c1 + O
Settings	viscosity [mPa·s]
298.15 K, 100 kPa, x2 = 0.728	181 ± 6

CCOC(=O)C(C)O (stereo unspecified) + COCCOCCOCCOCCOC
101 kPa
Settings	viscosity [mPa·s]
303.15 K, x1 = 0.3998	2.815 ± 0.051
308.15 K, x1 = 0.6001	2.385 ± 0.044
323.15 K, x1 = 0.8001	1.605 ± 0.031

CCCCC + CCCCCCCC
Settings	viscosity [mPa·s]
297.95 K, 101 kPa, x1 = 0.1048	0.4645 ± 0.018
297.95 K, 101 kPa, x1 = 0.1992	0.4431 ± 0.017
297.95 K, 101 kPa, x1 = 0.3044	0.4126 ± 0.016
297.95 K, 101 kPa, x1 = 0.4015	0.3847 ± 0.015
297.95 K, 101 kPa, x1 = 0.5066	0.3498 ± 0.014
297.95 K, 101 kPa, x1 = 0.5998	0.3216 ± 0.013
297.95 K, 101 kPa, x1 = 0.7095	0.2978 ± 0.012
297.95 K, 101 kPa, x1 = 0.8097	0.2723 ± 0.012
297.95 K, 101 kPa, x1 = 0.8946	0.2443 ± 0.011
298.15 K, 101.33 kPa, x1 = 0.1059	0.4719 ± 0.0069
298.15 K, 101.33 kPa, x1 = 0.1973	0.4439 ± 0.0066
298.15 K, 101.33 kPa, x1 = 0.3019	0.4091 ± 0.0062
298.15 K, 101.33 kPa, x1 = 0.404	0.3806 ± 0.0059
298.15 K, 101.33 kPa, x1 = 0.5019	0.3545 ± 0.0056
298.15 K, 101.33 kPa, x1 = 0.6046	0.3228 ± 0.0053
298.15 K, 101.33 kPa, x1 = 0.7015	0.2963 ± 0.005
298.15 K, 101.33 kPa, x1 = 0.8026	0.2702 ± 0.0047
298.15 K, 101.33 kPa, x1 = 0.9035	0.2454 ± 0.0044
313.05 K, 101 kPa, x1 = 0.1048	0.3939 ± 0.015
313.05 K, 101 kPa, x1 = 0.1992	0.3894 ± 0.015
313.05 K, 101 kPa, x1 = 0.3044	0.3676 ± 0.015
313.05 K, 101 kPa, x1 = 0.4015	0.3504 ± 0.014
313.05 K, 101 kPa, x1 = 0.5066	0.3205 ± 0.013
313.05 K, 101 kPa, x1 = 0.5998	0.2816 ± 0.012
